Structures can show the parent of a compound that is named as a salt. Where two headings read alike, the source gives them in different places. Where a SMILES comes first, the peptide text is derived from it. [ ]: non-standard residue; d: D form. Orn = NCCC[C@H](N)C(=O)O
How the values were obtained:
[1] = test system: rat primary hepatocytes
[2] = test system: rat primary hepatocytes; assay: MMP assay in rat primary hepatocytes; conditions: for IC50: read-out: MMP assays IC50 (µM) Rat Hepatocytes
[3] = test system: HepG2 cells; conditions: cited from earlier work
[4] = test system: HepG2 cells; conditions: for IC50: read-out: MMP assays IC50 (µM) HepG2
[5] = test system: HepG2 cells; assay: cells; conditions: Homo sapiens; for IC50: HepG2, read-out: MMP assays IC50 (µM) HepG2; for Emax: HepG2, read-out: MMP assays efficacy (%) HepG2
[6] = read-out: MMP assays IC50 (µM), qHTS-HepG2
[7] = read-out: MMP assays IC50 (µM) qHTS-HepG2

| Compound | MMP assays efficacy (%) Rat Hepatocytes [1] | IC50 [2] [µM] | MMP assays efficacy (%) qHTS-HepG2 [3] | IC50 [3, 6] [µM] | MMP assays IC50 (µM) HepG2 [4] | MMP assays efficacy (%) HepG2 [4] | IC50 [3, 7] [µM] | IC50 [4] [µM] | MMP assays IC50 (µM) Rat Hepatocytes [2] | MMP assays IC50 (µM) qHTS-HepG2 [3] | IC50 ([2]; Rattus norvegicus, Hepatocyte) [µM] | IC50 [5] [µM] | Emax [5] [%] |
| --- | --- | --- | --- | --- | --- | --- | --- | --- | --- | --- | --- | --- | --- |
| Cc1ccc(S(=O)(=O)NC2CCCCC2)cc1 [N-Cyclohexyl-4-methyl benzenesulfonamide] | -46±15% | 38.1 ± 25.6 | -83±10% | 36.1 ± 21 | inactive | inactive |  |  |  |  |  |  |  |
| CC1(COc2ccc(CC3SC(=O)NC3=O)cc2)CCCCC1 (stereo not shown) [Ciglitizone] | -84±44% | 9.92 ± 4.25 | -106±9% |  |  | -97% | 8.22 ± 1.6 | 14.1 |  |  |  |  |  |
| Cc1cccc(C)c1OCC(=O)N[C@@H](Cc1ccccc1)[C@@H](O)C[C@H](Cc1ccccc1)NC(=O)[C@H](C(C)C)N1CCCNC1=O [Lopinavir;ABT-738] | -27±0% | 15.4 ± 21.8 | -66±16% | 32.7 ± 1.32 | inactive | inactive |  |  |  |  |  |  |  |
| CCCCCc1cc(O)c2c(c1)OC(C)(C)[C@@H]1CCC(C)=C[C@@H]21 | inactive |  | -124±8% |  |  | -99% | 4.99 ± 1.66 | 15.5 | inactive |  |  |  |  |
| Nc1nc(N)c(N)c(N)n1.O=S(=O)(O)O [tetra-Aminopyrimidine sulfate] | -55±32% | 42.1 ± 30.6 | -117±30% | 18.7 ± 11.4 |  | -87% |  | 25.1 |  |  |  |  |  |
| [OH-].c1cc[c]([Sn+]([c]2ccccc2)[c]2ccccc2)cc1 [Triphenyltin hydroxide] | -118±53% | 14.8 ± 5.12 | -95±9% | 0.12 ± 0.03 |  | -94% |  | 1.12 |  |  |  |  |  |
| CC(C)(c1ccccc1)c1ccc(O)c(C(C)(C)c2ccccc2)c1 [2,4-Bis(1-methyl-1-phenylethyl)phenol] | -78±5% | 43.9 ± 17.4 | -108±7% |  |  | -90% | 3.49 ± 1.51 | 2.82 |  |  |  |  |  |
| CC(C)(C)c1ccc(CN2CCN(C(c3ccccc3)c3ccc(Cl)cc3)CC2)cc1.Cl.Cl (stereo not shown) [Buclizine dihydrochloride] | inactive |  | -52±10% |  | inactive | inactive | 32.2 ± 2.1 |  | inactive |  |  |  |  |
| O=C(c1ccc(OCCN2CCCCC2)cc1)c1c(-c2ccc(O)cc2)sc2cc(O)ccc12 [Raloxifene hydrochloride] | -87±14% | 20.9 ± 7.23 | -98±9% | 6.69 ± 1.65 |  | -127% |  | 7.94 |  |  |  |  |  |
| Methyl violet | -81±20% | 1.73 | -121±3% | 0.07 ± 0.03 |  | -100% |  | 0.44 |  |  |  |  |  |
| CCCCCCCCCCCC(=O)[O][Sn]([CH2]CCC)([CH2]CCC)[O]C(=O)CCCCCCCCCCC [Dibutyltin dilaurate] | -52+36% | 22.4 ± 7.17 | inactive |  |  | -86% |  | 27.5 |  | inactive |  |  |  |
| O=[N+]([O-])c1ccc2nc[nH]c2c1 [Compound 6-Nitrobenzimidazole] | inactive |  | -53±6% |  | inactive | inactive | 36.4 ± 10.8 |  | inactive |  |  |  |  |
| CC(C)C[C@@H]1NC(=O)[C@H](CCCN)NC(=O)[C@H](C(C)C)NC(=O)[C@@H]2CCCN2C(=O)[C@@H](Cc2ccccc2)NC(=O)[C@H](CC(C)C)NC(=O)[C@H](CCCN)NC(=O)[C@H](C(C)C)NC(=O)[C@@H]2CCCN2C(=O)[C@@H](Cc2ccccc2)NC1=O [gramicidin, reference compound] (cyclo(L[dF]PV[Orn]L[dF]PV[Orn])) | -112±28% |  | -86±3% | 0.51 ± 0.42 |  | -121% |  |  |  |  |  |  |  |
| CCN(CC)C(=S)[S-].CCN(CC)C(=S)[S-].[Zn+2] [Zinc diethyldithiocarbamate] | -95±12% |  | -70±15% |  |  | -63% |  |  |  |  |  |  |  |
| CCC[C@@]1(CCc2ccccc2)CC(O)=C([C@H](CC)c2cccc(NS(=O)(=O)c3ccc(C(F)(F)F)cn3)c2)C(=O)O1 [Tipranavir] | -96±11% |  | -93±5% | 26.6 ± 4.94 |  |  |  |  |  |  | 29.2 ± 2.37 | 17.3 | 100 |
| Nc1ccc(Cl)cc1N [4-Chloro-1,2-diaminobenzene] | -88±17% |  | -94±12% |  |  |  | 2.38 ± 1.6 |  |  |  | 11 ± 4.37 | 2 | 90 |
| CC(=O)CC(c1ccccc1)c1c(O)c2ccccc2oc1=O (stereo not shown) [Sodium warfarin] | -77±32% |  | -95±22% | 38.6 ± 12.8 |  |  |  |  |  |  | 35.5 | 35.5 | 65 |

| Compound | MMP assays efficacy (%) Rat Hepatocytes [1] | IC50 [2] [µM] | MMP assays efficacy (%) qHTS-HepG2 [3] | IC50 [3, 6] [µM] | MMP assays IC50 (µM) HepG2 [4] | MMP assays efficacy (%) HepG2 [4] | IC50 [3, 7] [µM] | IC50 [4] [µM] | MMP assays IC50 (µM) Rat Hepatocytes [2] | MMP assays IC50 (µM) qHTS-HepG2 [3] | IC50 ([2]; Rattus norvegicus, Hepatocyte) [µM] | IC50 [5] [µM] | Emax [5] [%] |
| --- | --- | --- | --- | --- | --- | --- | --- | --- | --- | --- | --- | --- | --- |
| OC(c1ccc(Cl)cc1)(c1cncnc1)c1ccccc1Cl (stereo not shown) [Fenarimol] | -81±45% |  | -77±13% |  |  |  | 42.6 ± 21.9 |  |  |  | 33.5 ± 2.73 | 35.5 | 81 |
| Nc1ccc(-c2ccc(N)cc2)cc1 [Benzidine] | -69±64% |  | -59±14% |  |  |  | 24.3 ± 4.5 |  |  |  | 2.51 ± 3.54 | 15.8 | 79 |
| Cc1cc(C)c(/C=C2\C(=O)Nc3ccccc32)[nH]1 [SU-5416] | -83±12% |  | -116±2% | 12.5 ± 1.78 |  |  |  |  |  |  | 11 ± 1.78 | 13.8 | 115 |
| C[C@]12CC[C@@H]3c4ccc(O)cc4CC[C@H]3[C@@H]1CC[C@H]2O [Compound 17alpha-Estradiol] | -64±3% |  | -106±11% |  |  |  | 37.8 ± 13.9 |  |  |  | 35.5 | 22.4 | 105 |
| COc1ccc(C(c2ccc(OC)cc2)C(Cl)(Cl)Cl)cc1 [Methoxychlor] | -75±11% |  | -101±17% | 26.3 ± 8.69 |  |  |  |  |  |  | 27.7 ± 11 | 28.2 | 88 |
| Cc1c(N)cccc1N [2,6-Toluenediamine] | -44±11% |  | -72±11% |  |  |  | 15.7 ± 10 |  |  |  | 32.2 ± 7.36 | 28.2 | 85 |
| CN1C(C(=O)Nc2ccccn2)=C(O)c2sccc2S1(=O)=O [Tenoxicam] | -65±17% |  | -83±17% | 8.36 ± 1.07 |  |  |  |  |  |  | 4.23 ± 3.79 | 6.6 | 69 |
| COc1ccc2cc3[n+](cc2c1OC)CCc1cc2c(cc1-3)OCO2 [Berberine chloride] | -101±32% |  | -95±8% |  |  |  | 2.03 ± 1.29 |  |  |  | 6.03 ± 3.78 | 3.46 | 92 |
| Oc1c(Br)c(Br)c(Br)c(Br)c1Br [Pentabromophenol] | -93±13% |  | -104±8% | 3.46 ± 0.99 |  |  |  |  |  |  | 4.98 ± 2.48 | 7.94 | 106 |
| Cc1cccc(N)c1N [3-Methylbenzene-1,2-diamine] | -56±11% |  | -67±14% |  |  |  | 21.7 ± 3.65 |  |  |  | 36.6 ± 11.8 | 28.2 | 90 |
| Oc1ccc2ccccc2c1 [Compound 2-Naphthalenol] | -56±17% |  | -107±7% |  |  |  | 50.1 ± 16 |  |  |  | 42.2 ± 19.8 | 35.5 | 81 |
| CC(=O)c1cc2c(cc1C)C(C)(C)C(C)CC2(C)C (stereo not shown) | inactive |  | -74±22% |  |  |  | 30.6 ± 18.9 |  | inactive |  |  | 28.2 | 73 |
| Oc1c(Cl)c(Cl)c(Cl)c(Cl)c1Cl [Pentachlorophenol] | -119±31% |  | -97±20% | 3.09 ± 0.6 |  |  |  |  |  |  | 4.17 ± 0.75 | 8.9 | 99 |
| CC1(C)[C@H](C=C(Cl)Cl)[C@H]1C(=O)OCc1c(F)c(F)cc(F)c1F [Transfluthrin] | inactive |  | -89±13% | 25 ± 4.09 |  |  |  |  | inactive |  |  | 19.4 | 70 |
| O=C(Nc1ccccc1)Nc1ccnc(Cl)c1 [Forchlorfenuron] | -108±37% |  | -112±3% | 0.45 ± 0.13 |  |  |  |  |  |  | 2.19 ± 1.97 | 1 | 104 |
| Oc1cc(Cl)cc(Cl)c1 [3,5-Dichlorophenol] | -81±35% |  | -96±8% |  |  |  | 9.79 |  |  |  | 46.9 ± 8.44 | 11.2 | 113 |
